{"source": "patent US20240109863A1", "about": "“2-PYRIDONE DERIVATIVE, AND PREPARATION METHOD THEREFOR AND PHARMACEUTICAL APPLICATION THEREOF” (KPC PHARMACEUTICALS, INC, priority 2020, published 2024)", "key": {"[1]": {"settings": "preclinical toxicology and data of phase I; cited from earlier work"}, "[2]": {"settings": "data of phase II, cited from earlier work"}, "THRβ": {"biological_target": "T1, THRβ (Homo sapiens, UniProt P10828)", "T1 construct": "RXRα and THRβ-LBD Eu-anti-GST antibody with GST tag", "T1 sequence (P10828 217-461 limits assumed, other chains not shown)": "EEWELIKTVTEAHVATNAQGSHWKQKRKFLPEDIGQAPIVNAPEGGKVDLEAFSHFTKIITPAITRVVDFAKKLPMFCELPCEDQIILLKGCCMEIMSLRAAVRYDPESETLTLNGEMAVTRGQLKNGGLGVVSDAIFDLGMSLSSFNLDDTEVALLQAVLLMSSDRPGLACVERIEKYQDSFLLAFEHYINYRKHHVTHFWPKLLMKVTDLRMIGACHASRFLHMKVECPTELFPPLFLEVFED", "T1 sequence (P19793 whole entry partner, other chains not shown, the tested form may be a part)": "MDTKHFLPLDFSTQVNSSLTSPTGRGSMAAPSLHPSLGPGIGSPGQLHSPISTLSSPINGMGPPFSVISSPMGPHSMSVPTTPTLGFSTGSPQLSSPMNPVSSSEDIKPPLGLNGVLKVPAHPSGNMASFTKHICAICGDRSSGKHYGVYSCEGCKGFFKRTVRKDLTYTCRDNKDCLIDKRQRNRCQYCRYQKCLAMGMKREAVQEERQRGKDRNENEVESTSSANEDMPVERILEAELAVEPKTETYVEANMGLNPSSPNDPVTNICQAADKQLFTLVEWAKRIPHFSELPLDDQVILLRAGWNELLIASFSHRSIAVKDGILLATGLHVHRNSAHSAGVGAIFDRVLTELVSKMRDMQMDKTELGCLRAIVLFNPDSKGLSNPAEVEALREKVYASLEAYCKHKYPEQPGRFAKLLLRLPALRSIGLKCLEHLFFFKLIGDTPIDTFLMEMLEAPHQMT", "assay": "THRβ binding assay (time-resolved FRET coactivator peptide recruitment)", "assay_type": "biochemical", "settings": "THRβ-LBD/RXRα, SRC2-2 coactivator peptide recruitment, 4 hours at room temperature", "method": "Experimental methods: In vitro analysis of the agonistic effect of compounds on THRβ was performed using time-resolved fluorescence resonance energy transfer coactivator peptide recruitment assays. The assay used biotin-SRC2-2 coactivator peptide, streptavidin-d2, RXRα and THRβ-LBD Eu-anti-GST antibody with GST tag. Eu-anti-GST antibody indirectly labeled THRβ-LBD by binding to the GST tag. Streptavidin-d2 indirectly labeled the SRC2-2 coactivator peptide by binding to the biotin tag. In the presence of RXRα, THRβ-LBD can form heterodimer THRβ-LBD/RXRα with it. […] According to the effect of different concentrations of the compound on the activity of THRβ, the agonistic ability of the compound can be evaluated.\nThe detailed procedure is as follows: • a. 100× reference compound or compound was prepared with DMSO, and equally diluted by 1:3. • b. 100× gradiently diluted reference compound or compound was diluted with 1× reaction buffer to 4×, which was then added to an assay plate. • c. A mixed solution of 4× THRβ-LBD and 4× RXRα was prepared with 1× reaction buffer, and added to the assay plate. • d. A mixed solution of 2× biotin-SRC2-2, 2× Eu-anti-GST, and 2× streptavidin-d2 was prepared with 1× reaction buffer, and added to the assay plate. • e. The assay plate was centrifuged at 1000 rpm for 1 min, and incubated at room temperature in the dark for 4 hours. • f."}, "[3]": {"assay": "In vivo pharmacokinetics in mice", "settings": "male ICR mice, intragastric, single dose 3 mg/Kg; for Area of curve / half-life: plasma; for half-life: mouse, po", "method": "Mice were used as test animals, and intragastrically administered with the compounds of Example 1 and Example 46, and then the drug concentrations in plasma at different time points were measured. The pharmacokinetic performance of the compounds of the present invention in mice was studied, and the drug metabolism characteristics were evaluated. In the example, healthy adult male ICR mice with similar body weight were selected, and orally administered with drugs once at a dose of 3.0 mg/kg. Whole blood was collected before the administration and 1 h, 2 h, 4 h, 6 h, 8 h, 12 h, 24 h and 48 h after the administration, respectively. LC/MS/MS method was established to determine the concentrations of prototype drugs in plasma samples. The main pharmacokinetic parameters were calculated using WinNonlin 6.3 NCA model.\nExperimental drug: the compounds obtained in Example 1 and Example 46.\nExperimental animals: 9 healthy adult male ICR mice, equally divided into 3 groups, 3 mice in each group, purchased from Shanghai Xipu'er-Bikai Experimental Animal Co., Ltd., with an animal certificate number: SOCK (Shanghai) 2018-0006 2018 0006 010467.\nPreparation of drug: A certain amount of the compounds of Example 1 and Example 46 were accurately weighed, put into a 15 ml sample tube, wetted by 5 μL of Tween 80, and then added with 5.2 mL of 2% hydroxypropyl methylcellulose (HPMC) solution. The mixture was sonicated and mixed by vortex to obtain a homogeneous suspension. The drugs were freshly prepared just before use.\nAdministration: After fasting overnight, ICR mice were intragastrically administered with the drugs at a dose of 3.0 mg/kg.\nOperation: The mice were intragastrically administered with the compounds of Example 1 and Example 46. Whole blood was collected before the administration and 1 h, 2 h, 4 h, 6 h, 8 h, 12 h, 24 h and 48 h after the administration, then anticoagulated with heparin sodium, and centrifuged at 4° C. for 5 min. Plasma was separated, and stored at −80° C. for determination.\nDetermination of the contents of the compounds to be tested in the mice plasma after intragastric administration of drugs: 12.5 μL of the mice plasma to be tested at each time point after the administration of the compounds of Example 1 and Example 46 were taken respectively, mixed in pairs, and added with 100 μL of the internal standard solution and 125 μL of methanol. The mixture was mixed by vortex for 2 min, and centrifuged at 13000 rpm for 10 min at 4° C. The supernatant was taken for LC-MS/MS analysis."}, "THRα": {"biological_target": "T2, THRα (Homo sapiens, UniProt P10827)", "T2 construct": "GST", "T2 sequence (P10827 1-410 isoform P10827-2, other chains not shown)": "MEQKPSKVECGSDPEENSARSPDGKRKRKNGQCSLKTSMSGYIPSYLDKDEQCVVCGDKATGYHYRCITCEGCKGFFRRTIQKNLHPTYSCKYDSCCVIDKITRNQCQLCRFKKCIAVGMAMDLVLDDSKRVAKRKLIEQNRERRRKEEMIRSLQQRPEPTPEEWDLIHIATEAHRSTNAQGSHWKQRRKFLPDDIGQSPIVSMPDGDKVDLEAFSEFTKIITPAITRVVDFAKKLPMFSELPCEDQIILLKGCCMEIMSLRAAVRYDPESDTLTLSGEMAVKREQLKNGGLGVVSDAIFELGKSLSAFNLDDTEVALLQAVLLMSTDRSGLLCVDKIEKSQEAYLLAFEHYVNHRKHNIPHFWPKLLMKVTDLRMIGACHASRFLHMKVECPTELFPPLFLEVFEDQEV", "T2 sequence (P19793 whole entry partner, other chains not shown)": "as the sequence (P19793 whole entry partner, other chains not shown, the tested form may be a part) above", "assay": "THRα binding assay (as the THRβ assay, THRβ replaced with THRα)", "assay_type": "biochemical", "settings": "for EC50: THRα in place of THRβ; for THRα/β selectivity (fold): ratio of THRα EC50 to THRβ EC50"}, "[4]": {"assay": "In vitro liver microsome stability assay", "assay_type": "in vitro ADME", "settings": "liver microsomes, pH 7.4; human, 0.2 mg/mL liver microsomal protein, 1 μM test substance, 37° C.; read-out: Liver microsome stability (species: human): T½", "method": "The test substance and the positive control substance verapamil were respectively dissolved with DMSO to 10 mM as a stock solution. The above 10 mM stock solution was diluted with 70% acetonitrile aqueous solution to a concentration of 0.25 mM.\nAn NADPH regeneration system finally containing concentrations of 6.5 mM NADP, 16.5 mM G-6-P, 3 U/mL G-6-PDH, and 3.3 mM MgCl was prepared.\nStopping solution was an acetonitrile solution containing tolbutamide and propranolol (both internal standards).\nPhosphate buffer was a 100 mM K3PO4 (pH=7.4) buffer containing 3.3 mM MgCl2.\nLiver microsomal incubation system was a 100 mM phosphate buffer containing 0.2 mg/mL liver microsomal protein and 1 μM test substance/positive control.\n80 μL of the mixed solution from the incubation system was taken. 400 μL of the stopping solution was added to precipitate protein. The mixture was vortexed and added with 20 μL of NADPH regeneration system as the sample at 0 min.\n130 μL of NADPH regeneration system was added to the remaining 520 μL of protein-drug mixed solution. The mixture was mixed well, and incubated. The final incubation system was 650 μL, containing 0.2 mg/mL liver microsomal protein, 1 μM test substance/positive control, 1.3 mM NADP, 3.3 mM G-6-P, and 0.6 U/mL G-6-PDH.\nThe mixed system was slowly shaken and incubated in a water bath at 37° C. 100 μL of the incubation solution was taken at 5, 10, 30, and 60 min, respectively, and added into a new 96-well plate with 400 μL of stopping solution in each well. The mixture in each well was mixed well, and the protein was precipitated by centrifuging at 4000×g for 15 minutes at 4° C.\n100 μL of the supernatant was taken, and diluted with water at a ratio of 1:2. The samples were analyzed by LC-MS/MS."}}, "data": [{"smiles": "CC(C)c1cc(Oc2c(Cl)cc(-n3nc(C#N)c(=O)[nH]c3=O)cc2Cl)n[nH]c1=O", "note": "[Control compound 2, MGL-3196]", "values": [{"measurement": "LDL cholesterol, triglycerides and lipoproteins", "setting": "[1]", "value": "significantly reduce"}, {"measurement": "severe cases", "setting": "[2]; not related to treatment", "value": 3}, {"measurement": "adverse effects (AEs) mild", "setting": "[2]", "value": 85, "unit": "%"}, {"measurement": "adverse effects (AEs) moderate", "setting": "[2]", "value": 15, "unit": "%"}]}, {"smiles": "CC(C)n1cc(Oc2c(Cl)cc(-n3nc(C#N)c(=O)[nH]c3=O)cc2Cl)ccc1=O", "note": "[Example 1, 2-(3,5-Dichloro-4-((1-isopropyl-6-oxo-1,6-dihydropyridin-3-yl)oxy)phenyl)-3,5-dioxo-2,3,4,5-tetrahydro-1,2,4-triazine-6-carbonitrile]", "values": [{"measurement": "EC50", "setting": "THRβ", "value": 11, "unit": "nM"}, {"measurement": "Peak plasma concentration", "setting": "[3]", "value": 54.0, "unit": "ng/mL"}, {"measurement": "Area of curve", "setting": "[3]", "value": 535.2, "unit": "ng·h/mL"}, {"measurement": "half-life", "setting": "[3]", "value": 5.6, "unit": "h"}, {"measurement": "EC50", "setting": "THRα", "value": 49, "unit": "nM"}, {"measurement": "THRα/β selectivity (fold)", "setting": "THRα", "value": 4.5, "unit": "fold"}]}, {"smiles": "N#Cc1nn(-c2cc(Cl)c(Oc3ccc(=O)n(-c4ccccc4)c3)c(Cl)c2)c(=O)[nH]c1=O", "note": "[Example 20, 2-(3,5-dichloro-4-((6-oxo-1-phenyl-1,6-dihydropyridin-3-yl)oxy)phenyl)-3,5-dioxo-2,3,4,5-tetrahydro-1,2,4-triazine-6-carbonitrile]", "values": [{"measurement": "EC50", "setting": "THRβ", "value": 88, "unit": "nM"}, {"measurement": "half-life at 1 μM", "setting": "[4]", "value": "> 2", "unit": "h"}, {"measurement": "EC50", "setting": "THRα", "value": 4180, "unit": "nM"}, {"measurement": "THRα/β selectivity (fold)", "setting": "THRα", "value": 47.5, "unit": "fold"}]}, {"smiles": "N#Cc1nn(-c2cc(Cl)c(Oc3ccc(=O)n(-c4cccc(F)c4)c3)c(Cl)c2)c(=O)[nH]c1=O", "note": "[Example 22, 2-(3,5-Dichloro-4-((1-(3-fluorophenyl)-6-oxo-1,6-dihydropyridin-3-yl)oxy)phenyl)-3,5-dioxo-2,3,4,5-tetrahydro-1,2,4-triazine-6-carbonitrile]", "values": [{"measurement": "EC50", "setting": "THRβ", "value": 20, "unit": "nM"}, {"measurement": "half-life at 1 μM", "setting": "[4]", "value": "> 2", "unit": "h"}, {"measurement": "EC50", "setting": "THRα", "value": 669, "unit": "nM"}, {"measurement": "THRα/β selectivity (fold)", "setting": "THRα", "value": 33.5, "unit": "fold"}]}, {"smiles": "O=c1[nH]c(=O)n(-c2cc(Cl)c(Oc3ccc(=O)n(-c4ccccc4)c3)c(Cl)c2)nc1CF", "note": "[Example 35, 2-(3,5-dichloro-4-((6-oxo-1-phenyl-1,6-dihydropyridin-3-yl)oxy)phenyl)-6-(fluoromethyl)-1,2,4-triazine-3,5(2H, 4H)-dione]", "values": [{"measurement": "EC50", "setting": "THRβ", "value": 6, "unit": "nM"}, {"measurement": "half-life at 1 μM", "setting": "[4]", "value": "> 2", "unit": "h"}, {"measurement": "EC50", "setting": "THRα", "value": 220, "unit": "nM"}, {"measurement": "THRα/β selectivity (fold)", "setting": "THRα", "value": 36.7, "unit": "fold"}]}, {"smiles": "CC1CCc2c(Oc3c(Cl)cc(-n4nc(C#N)c(=O)[nH]c4=O)cc3Cl)ccc(=O)n21", "note": "(stereo not shown) [Example 46, 2-(3,5-dichloro-4-((3-methyl-5-oxo-1,2,3,5-tetrahydroindoline-8-yl)oxy)phenyl)-3,5-dioxo-2,3,4,5-tetrahydro-1,2,4-triazine-6-carbonitrile]", "values": [{"measurement": "EC50", "setting": "THRβ", "value": 102, "unit": "nM"}, {"measurement": "Peak plasma concentration", "setting": "[3]", "value": 92.37, "unit": "ng/mL"}, {"measurement": "Area of curve", "setting": "[3]", "value": 1774.03, "unit": "ng·h/mL"}, {"measurement": "half-life", "setting": "[3]", "value": 11.2, "unit": "h"}, {"measurement": "EC50", "setting": "THRα", "value": 930, "unit": "nM"}, {"measurement": "THRα/β selectivity (fold)", "setting": "THRα", "value": 9.1, "unit": "fold"}]}]}
